Patent US9956204B2, “Composition for exterminating scuticociliates in fish including mebendazole” (NATIONAL INSTITUTE OF FISHERIES SCIENCE, priority 2016, dated 2018)

Assays:
scuticociliates [1] = experiment: Scuticociliates extermination effect of candidate substances in MEM medium; format: cell-based; conditions: MEM medium
Protocol: CHSE-214 cell line into which scuticociliates were inoculated was cultured in advance. The CHSE-214 cell line was cultured in an incubator using an MEM medium at 22° C. Scuticociliates inoculated into the cell line proliferated for 3 days by which the number reaches to be capable of analyzing in vitro anti-scuticociliates effect. Scuticociliates that feed on the cell line and sufficiently grow were mixed with the candidate substance and the activity of scuticociliates was measured.
In order to analyze the antiparasitic activity of the above 19 types of candidate substances of scuticociliates extermination drugs, scuticociliates were cultured for 3 days, and 100 μl (1×10^5) was dispensed into each well of 96 wells. The candidate substances were diluted by each concentration and the final volume was dispensed into 100 μl. Thereafter, the two were mixed and finally made into 200 μl.

scuticociliates [2] = experiment: Scuticociliates extermination effect of candidate substances in seawater medium; format: cell-based; conditions: seawater medium, 4 hour
Protocol: For this, scuticociliates were cultured in CHSE-214 cell line (using MEM medium), and then scuticociliates were collected and centrifuged with sterilized seawater or artificial seawater (20‰) to replace them with a seawater medium. Each of 100 μl (1×10^5) was dispensed into each well of 96 wells, followed by further culture for 30 minutes. The candidate substances diluted in seawater to have a volume of 100 μl per each concentration were mixed with scuticociliates to have the final volume of 200 μl and cultured for 4 hour.

| SMILES | Survival or Death of scuticociliates (activity and shape, microscope) (scuticociliates [1]; Dosage 10 ppm) | Survival or Death of scuticociliates (activity and shape, microscope) (scuticociliates [1]; Dosage 50 ppm) | Survival or Death of scuticociliates (activity and shape, microscope) (scuticociliates [1]; Dosage 100 ppm) | Survival or Death of scuticociliates (activity and shape, microscope) (scuticociliates [1]; Dosage 200 ppm) | Survival or Death of scuticociliates (activity and shape, microscope) (scuticociliates [1]; Dosage 400 ppm) | Survival or Death of scuticociliates (activity and shape, microscope) (scuticociliates [1]; Dosage 500 ppm) | Survival or Death of scuticociliates (activity and shape, microscope) (scuticociliates [2]; Dosage 500 ppm) | Survival or Death of scuticociliates (activity and shape, microscope) (scuticociliates [2]; Dosage 800 ppm) | Survival or Death of scuticociliates (activity and shape, microscope) (scuticociliates [2]; Dosage 900 ppm) | Survival or Death of scuticociliates (activity and shape, microscope) (scuticociliates [2]; Dosage 1000 ppm) | Survival or Death of scuticociliates (activity and shape, microscope) (scuticociliates [2]; Dosage 1500 ppm) | Survival or Death of scuticociliates (activity and shape, microscope) (scuticociliates [1]; Dosage 600 ppm) | Survival or Death of scuticociliates (activity and shape, microscope) (scuticociliates [1]; Dosage 700 ppm) | Survival or Death of scuticociliates (activity and shape, microscope) (scuticociliates [1]; Dosage 800 ppm) | Survival or Death of scuticociliates (activity and shape, microscope) (scuticociliates [1]; Dosage 900 ppm) | Survival or Death of scuticociliates (activity and shape, microscope) (scuticociliates [1]; Dosage 1000 ppm) | Survival or Death of scuticociliates (activity and shape, microscope) (scuticociliates [2]; Dosage 50 ppm) | Survival or Death of scuticociliates (activity and shape, microscope) (scuticociliates [2]; Dosage 100 ppm) | Survival or Death of scuticociliates (activity and shape, microscope) (scuticociliates [2]; Dosage 600 ppm) | Survival or Death of scuticociliates (activity and shape, microscope) (scuticociliates [2]; Dosage 700 ppm) | also measured |
| --- | --- | --- | --- | --- | --- | --- | --- | --- | --- | --- | --- | --- | --- | --- | --- | --- | --- | --- | --- | --- | --- |
| CC[C@H](C)[C@H]1O[C@]2(C=C[C@@H]1C)C[C@@H]1C[C@@H](C/C=C(\C)[C@@H](O[C@H]3C[C@H](OC)[C@@H](O[C@H]4C[C@H](OC)[C@@H](O)[C@H](C)O4)[C@H](C)O3)[C@@H](C)/C=C/C=C3\CO[C@@H]4[C@H](O)C(C)=C[C@@H](C(=O)O1)[C@]34O)O2 [Abamectin] | Survival | Survival | Survival | Δ | Death | Death | Survival | Death | Death | Death | Death |  |  |  |  |  |  |  |  |  | Survival or Death of scuticociliates (activity and shape, microscope) (scuticociliates [1]; Dosage 20 ppm): Survival; Survival or Death of scuticociliates (activity and shape, microscope) (scuticociliates [1]; Dosage 150 ppm): Survival; Survival or Death of scuticociliates (activity and shape, microscope) (scuticociliates [2]; Dosage 2000 ppm): Death |
| CCCSc1ccc2nc(NC(=O)OC)[nH]c2c1 [Albendazole] | Survival | Survival | Survival | Survival | Survival | Survival | Survival | Δ | Death | Death |  | Survival | Survival | Δ | Death | Death | Survival | Survival | Survival | Survival | Survival or Death of scuticociliates (activity and shape, microscope) (scuticociliates [1]; Dosage 300 ppm): Survival; Survival or Death of scuticociliates (activity and shape, microscope) (scuticociliates [2]; Dosage 10 ppm): Survival; Survival or Death of scuticociliates (activity and shape, microscope) (scuticociliates [2]; Dosage 200 ppm): Survival; Survival or Death of scuticociliates (activity and shape, microscope) (scuticociliates [2]; Dosage 300 ppm): Survival; Survival or Death of scuticociliates (activity and shape, microscope) (scuticociliates [2]; Dosage 400 ppm): Survival |
| O=C(OCc1ccccc1)c1ccccc1 [Benzyl benzonate] | Survival | Survival | Survival | Survival |  | Survival | Δ | Death |  |  |  | Survival |  | Δ |  | Δ | Survival | Survival | Death | Death |  |
| Nc1cc(C(Cl)=C(Cl)Cl)c(S(N)(=O)=O)cc1S(N)(=O)=O [Clorsulon] |  |  |  |  |  | Survival | Survival |  |  | Survival | Death |  | Survival | Survival | Δ | Δ | Survival |  |  |  | Survival or Death of scuticociliates (activity and shape, microscope) (scuticociliates [1]; Dosage 2000 ppm): Death; Survival or Death of scuticociliates (activity and shape, microscope) (scuticociliates [1]; Dosage 4000 ppm): Death; Survival or Death of scuticociliates (activity and shape, microscope) (scuticociliates [2]; Dosage 250 ppm): Survival; Survival or Death of scuticociliates (activity and shape, microscope) (scuticociliates [2]; Dosage 1200 ppm): Survival; Survival or Death of scuticociliates (activity and shape, microscope) (scuticociliates [2]; Dosage 1400 ppm): Survival |
| CC1(C)[C@H](C(=O)O[C@H](C#N)c2cccc(Oc3ccccc3)c2)[C@@H]1C=C(Br)Br [Deltamethrin] |  |  |  |  |  | Survival | Survival |  |  | Survival | Death | Survival | Survival | Survival | Survival | Δ |  |  |  |  | Survival or Death of scuticociliates (activity and shape, microscope) (scuticociliates [1]; Dosage 2000 ppm): Death; Survival or Death of scuticociliates (activity and shape, microscope) (scuticociliates [1]; Dosage 5000 ppm): Death; Survival or Death of scuticociliates (activity and shape, microscope) (scuticociliates [2]; Dosage 250 ppm): Survival; Survival or Death of scuticociliates (activity and shape, microscope) (scuticociliates [2]; Dosage 1200 ppm): Death; Survival or Death of scuticociliates (activity and shape, microscope) (scuticociliates [2]; Dosage 1400 ppm): Death |
| COC(=O)Nc1nc2ccc(Sc3ccccc3)cc2[nH]1 [Fenbendazole] | Survival | Survival | Survival | Survival | Survival | Survival | Survival | Δ | Δ | Death |  | Survival | Survival | Δ | Δ | Death | Survival | Survival | Survival | Survival | Survival or Death of scuticociliates (activity and shape, microscope) (scuticociliates [1]; Dosage 300 ppm): Survival; Survival or Death of scuticociliates (activity and shape, microscope) (scuticociliates [2]; Dosage 10 ppm): Survival; Survival or Death of scuticociliates (activity and shape, microscope) (scuticociliates [2]; Dosage 200 ppm): Survival; Survival or Death of scuticociliates (activity and shape, microscope) (scuticociliates [2]; Dosage 300 ppm): Survival; Survival or Death of scuticociliates (activity and shape, microscope) (scuticociliates [2]; Dosage 400 ppm): Survival |
| O=[N+]([O-])NC1=NCCN1Cc1ccc(Cl)nc1 [Imidacloprid] |  |  |  |  |  | Survival | Survival |  |  | Δ | Death | Survival | Survival | Survival | Δ | Δ |  |  |  |  | Survival or Death of scuticociliates (activity and shape, microscope) (scuticociliates [1]; Dosage 2000 ppm): Death; Survival or Death of scuticociliates (activity and shape, microscope) (scuticociliates [1]; Dosage 5000 ppm): Death; Survival or Death of scuticociliates (activity and shape, microscope) (scuticociliates [2]; Dosage 1200 ppm): Δ; Survival or Death of scuticociliates (activity and shape, microscope) (scuticociliates [2]; Dosage 1400 ppm): Death; Survival or Death of scuticociliates (activity and shape, microscope) (scuticociliates [2]; Dosage 2000 ppm): Death; Survival or Death of scuticociliates (activity and shape, microscope) (scuticociliates [2]; Dosage 2500 ppm): Death |
